Laboratory results from patent publication US11840686B2, “Modulation of prekallikrein (PKK) expression” (Ionis Pharmaceuticals, Inc., priority 2013, dated 2023).
Strand notation (5' to 3'): a small letter for the sugar, then the base; units joined by * are phosphorothioate-linked, units joined directly phosphodiester-linked; [ ] holds rarer units or linkages, { } end groups; capitals alone tell only the bases. e = 2'-O-(2-methoxyethyl) (MOE); [5mC] = 5-methylcytosine; d = 2'-deoxy (DNA)

Key:
human PKK mRNA [1] = experiment: Antisense inhibition of human PKK mRNA in HepaRG cells, 5,000 nM (Example 2); assay type: cell-based
In short: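 qRT-PCR (RTS3454) read-out, RIBOGREEN-normalized; % inhibition vs untreated cells. HepaRG, 20,000 cells/well, electroporation, 5,000 nM ASO, ~24 h.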

human PKK mRNA [2] = experiment: Dose-dependent antisense inhibition of human PKK in HepaRG cells, 0.19-5.00 uM (Example 5); assay type: cell-based; details: for percent inhibition of PKK mRNA, 0.19 μM: 0.19 μM antisense oligonucleotide; for percent inhibition of PKK mRNA, 0.56 μM: 0.56 μM antisense oligonucleotide; for percent inhibition of PKK mRNA, 1.67 μM: 1.67 μM antisense oligonucleotide; for percent inhibition of PKK mRNA, 5.00 μM: 5.00 μM antisense oligonucleotide
In short: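 PKK mRNA knockdown was measured by real-time PCR (primer probe set RTS3454) about 16 h after electroporating 20,000 HepaRG cells per well with oligonucleotide at four doses from 0.19 to 5.00 μM. Levels were adjusted to RIBOGREEN-measured total RNA, and IC50 values were calculated.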

[3] = HepaRG cells, electroporation, approximately 16 hours, Table 40
[4] = HepaRG cells, 5,000 nM antisense oligonucleotide, 5-10-5 gapmers, Table 16
[5] = HepaRG cells, electroporation, approximately 16 hours, Table 36
[6] = HepaRG cells, electroporation, approximately 16 hours, Table 35
[7] = Table 13, human PKK mRNA in HepaRG cells, 5-10-5 gapmers
[8] = HepaRG cells, electroporation, approximately 16 hours, Table 37
[9] = 4 point dose response, HepaRG cells, Table 37
[10] = human PKK mRNA in HepaRG cells, 5-10-5 gapmers, Table 14
[11] = Table 34, HepaRG, electroporation, ~16 h
[12] = HepaRG cells, electroporation, approximately 16 hours, Table 39

In the case of “548753 (antisense eT*e[5mC]*eA*e[5mC]*dT*dG*dT*dA*d[5mC]*dT*dA*dG*dT*dT*eT*e[5mC]*e[5mC]*eT) [compound 548753]”, the “% inhibition” value (human PKK mRNA [1]; human PKK mRNA, HepaRG cells, 5,000 nM antisense oligonucleotide, Table 18) is reported as 82%, the “percent inhibition of PKK at 0.19 μM” value (human PKK mRNA [2]; [3]) is reported as 0% and the “percent inhibition of PKK at 0.56 μM” value (human PKK mRNA [2]; [3]) is reported as 23%. The “percent inhibition of PKK at 1.67 μM” value (human PKK mRNA [2]; [3]) was 49%, the “percent inhibition of PKK at 5.00 μM” value (human PKK mRNA [2]; [3]) was 84% and the IC50 (human PKK mRNA [2]; 4 point dose response, HepaRG cells, Table 40) was 1500 nM.

“546986 (e[5mC]*eA*eG*eG*eA*dT*dA*dG*dA*dA*d[5mC]*dT*dG*dA*dT*eG*eG*eT*e[5mC]*e[5mC]; antisense) [compound 546986]” was tested, and the “% inhibition” value (human PKK mRNA [1]; [4]) was 91%, the “percent inhibition of PKK at 0.19 μM” value (human PKK mRNA [2]; [5]) was 31% and the “percent inhibition of PKK at 0.56 μM” value (human PKK mRNA [2]; [5]) was 49%. For the same substance, the “percent inhibition of PKK at 1.67 μM” value (human PKK mRNA [2]; [5]) was 77%, the “percent inhibition of PKK at 5.00 μM” value (human PKK mRNA [2]; [5]) was 89% and the IC50 (human PKK mRNA [2]; 4 point dose response, HepaRG cells, Table 36) was 500 nM. For the same substance, the “percent inhibition of PKK mRNA, 0.19 μM” value (human PKK mRNA [2]; HepaRG cells) was 7%, the “percent inhibition of PKK mRNA, 0.56 μM” value (human PKK mRNA [2]; HepaRG cells) was 28% and the “percent inhibition of PKK mRNA, 1.67 μM” value (human PKK mRNA [2]; HepaRG cells) was 69%. The “percent inhibition of PKK mRNA, 5.00 μM” value (human PKK mRNA [2]; HepaRG cells) was 86% and the IC50 (human PKK mRNA [2]; HepaRG cells, 0.19-5.00 μM) was 1100 nM.

“546916 (e[5mC]*eG*eT*e[5mC]*eA*d[5mC]*dT*dG*dT*dA*d[5mC]*d[5mC]*dT*dA*dT*eA*eA*e[5mC]*eT*eG; antisense) [compound 546916]” was tested, and the “% inhibition” value (human PKK mRNA [1]; [4]) was 92%, the “percent inhibition of PKK at 0.19 μM” value (human PKK mRNA [2]; [6]) was 43% and the “percent inhibition of PKK at 0.56 μM” value (human PKK mRNA [2]; [6]) was 71%. For the same substance, the “percent inhibition of PKK at 1.67 μM” value (human PKK mRNA [2]; [6]) was 79%, the “percent inhibition of PKK at 5.00 μM” value (human PKK mRNA [2]; [6]) was 89% and the IC50 (human PKK mRNA [2]; 4 point dose response, HepaRG cells, Table 35) was 200 nM. The “percent inhibition of PKK mRNA, 0.19 μM” value (human PKK mRNA [2]; HepaRG cells) was 0%, the “percent inhibition of PKK mRNA, 0.56 μM” value (human PKK mRNA [2]; HepaRG cells) was 27% and the “percent inhibition of PKK mRNA, 1.67 μM” value (human PKK mRNA [2]; HepaRG cells) was 73%. For the same substance, the “percent inhibition of PKK mRNA, 5.00 μM” value (human PKK mRNA [2]; HepaRG cells) was 97% and the IC50 (human PKK mRNA [2]; HepaRG cells, 0.19-5.00 μM) was 1000 nM.

“546847 (eA*e[5mC]*eT*eG*eT*d[5mC]*d[5mC]*dT*dA*dT*dA*dT*d[5mC]*dA*d[5mC]*eT*eG*eT*e[5mC]*e[5mC]; antisense) [compound 546847]” was tested, and the “% inhibition” value (human PKK mRNA [1]; [7]) was 88%, the “percent inhibition of PKK at 0.19 μM” value (human PKK mRNA [2]; [8]) was 39% and the “percent inhibition of PKK at 0.56 μM” value (human PKK mRNA [2]; [8]) was 57%. For the same substance, the “percent inhibition of PKK at 1.67 μM” value (human PKK mRNA [2]; [8]) was 75%, the “percent inhibition of PKK at 5.00 μM” value (human PKK mRNA [2]; [8]) was 89% and the IC50 (human PKK mRNA [2]; [9]) was 400 nM. For the same substance, the “percent inhibition of PKK mRNA, 0.19 μM” value (human PKK mRNA [2]; HepaRG cells) was 14%, the “percent inhibition of PKK mRNA, 0.56 μM” value (human PKK mRNA [2]; HepaRG cells) was 44% and the “percent inhibition of PKK mRNA, 1.67 μM” value (human PKK mRNA [2]; HepaRG cells) was 83%. The “percent inhibition of PKK mRNA, 5.00 μM” value (human PKK mRNA [2]; HepaRG cells) was 95% and the IC50 (human PKK mRNA [2]; HepaRG cells, 0.19-5.00 μM) was 700 nM.

In the case of “546855 (eA*eT*eA*eA*e[5mC]*dA*dG*dT*dA*dT*d[5mC]*dA*d[5mC]*dT*dG*eT*e[5mC]*e[5mC]*eT*eA; antisense) [compound 546855]”, the “% inhibition” value (human PKK mRNA [1]; [10]) is reported as 87%, the “percent inhibition of PKK at 0.19 μM” value (human PKK mRNA [2]; [8]) is reported as 18% and the “percent inhibition of PKK at 0.56 μM” value (human PKK mRNA [2]; [8]) is reported as 7%. The “percent inhibition of PKK at 1.67 μM” value (human PKK mRNA [2]; [8]) was 30%, the “percent inhibition of PKK at 5.00 μM” value (human PKK mRNA [2]; [8]) was 82% and the IC50 (human PKK mRNA [2]; [9]) was 2200 nM.

In the case of “546827 (e[5mC]*eA*eG*eT*eA*dT*d[5mC]*dA*d[5mC]*dT*dG*dT*dA*d[5mC]*dT*eA*eG*eT*eT*eT; antisense) [compound 546827]”, the “% inhibition” value (human PKK mRNA [1]; [7]) is reported as 98%, the “percent inhibition of PKK at 5.00 μM” value (human PKK mRNA [2]; HepaRG cells, electroporation, approximately 16 hours, Table 41) is reported as 96% and the “percent inhibition of PKK at 0.19 0μM” value (human PKK mRNA [2]; 0.19 0μM, HepaRG cells, electroporation, approximately 16 hours, Table 41) is reported as 23%. The “percent inhibition of PKK at 0.56 0μM” value (human PKK mRNA [2]; 0.56 0μM, HepaRG cells, electroporation, approximately 16 hours, Table 41) was 74%, the “percent inhibition of PKK at 1.67 1μM” value (human PKK mRNA [2]; 1.67 1μM, HepaRG cells, electroporation, approximately 16 hours, Table 41) was 98% and the IC50 (human PKK mRNA [2]; 4 point dose response, HepaRG cells, Table 41) was 400 nM. The “percent inhibition of PKK at 0.19 μM” value (human PKK mRNA [2]; [11]) was 32%, the “percent inhibition of PKK at 0.56 μM” value (human PKK mRNA [2]; [11]) was 70% and the “percent inhibition of PKK at 1.67 μM” value (human PKK mRNA [2]; [11]) was 84%. The “percent inhibition of PKK at 5.00 μM” value (human PKK mRNA [2]; [11]) was 90% and the IC50 (human PKK mRNA [2]; Table 34, PKK mRNA, HepaRG, electroporation, ~16 h) was 300 nM.

For “546876 (eG*eT*e[5mC]*e[5mC]*eT*dA*dT*dA*dT*d[5mC]*dA*d[5mC]*dT*dG*dT*eA*e[5mC]*e[5mC]*eT*eG; antisense) [compound 546876]”, the “% inhibition” value (human PKK mRNA [1]; [10]) was 87%, the “percent inhibition of PKK at 0.19 μM” value (human PKK mRNA [2]; [12]) was 0% and the “percent inhibition of PKK at 0.56 μM” value (human PKK mRNA [2]; [12]) was 50%. The “percent inhibition of PKK at 1.67 μM” value (human PKK mRNA [2]; [12]) was 85%, the “percent inhibition of PKK at 5.00 μM” value (human PKK mRNA [2]; [12]) was 95% and the IC50 (human PKK mRNA [2]; 4 point dose response, HepaRG cells, Table 39) was 800 nM.
